Experimental data published in ChEMBL document CHEMBL4196232, “A Series of Indole-Thiazole Derivatives Act as GPER Agonists and Inhibit Breast Cancer Cell Growth” (ACS Med Chem Lett, 2018).
pEC50: −log10 of the molar value. Active and inactive are the calls of the source. No cut-off for these calls is given here.

Key:
[1] = target: T1, Estrogen receptor (Homo sapiens) (UniProt P03372); assay: Displacement of fluoromone from recombinant human full length untagged estrogen receptor alpha expressed in insect cells at
T1 sequence (whole entry): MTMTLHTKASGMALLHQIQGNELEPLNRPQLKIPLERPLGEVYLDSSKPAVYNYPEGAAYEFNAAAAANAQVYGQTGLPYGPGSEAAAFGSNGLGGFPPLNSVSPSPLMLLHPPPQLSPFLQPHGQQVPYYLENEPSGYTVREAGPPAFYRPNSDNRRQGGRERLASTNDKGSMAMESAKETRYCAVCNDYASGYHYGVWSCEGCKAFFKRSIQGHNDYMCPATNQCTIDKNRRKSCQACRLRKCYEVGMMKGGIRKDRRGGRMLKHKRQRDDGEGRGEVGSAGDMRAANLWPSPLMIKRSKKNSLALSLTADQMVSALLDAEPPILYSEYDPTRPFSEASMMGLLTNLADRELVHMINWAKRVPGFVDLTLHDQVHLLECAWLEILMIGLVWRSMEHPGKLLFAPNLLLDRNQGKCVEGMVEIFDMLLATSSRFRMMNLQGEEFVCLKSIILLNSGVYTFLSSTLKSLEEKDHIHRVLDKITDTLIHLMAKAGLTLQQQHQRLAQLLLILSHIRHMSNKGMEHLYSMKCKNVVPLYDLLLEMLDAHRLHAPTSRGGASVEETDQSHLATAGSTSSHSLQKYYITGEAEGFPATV

MDA-MB-231 [2] = assay: Cytotoxicity against human MDA-MB-231 cells assessed as decrease in cell viability at 1 uM after 72 hrs in presence of GPER agonist E2 by MTS assay; assay type: functional, cell-based
SK-BR-3 [3] = assay: Cytotoxicity against human SKBR3 cells assessed as decrease in cell viability at 1 uM after 72 hrs in presence of GPER agonist E2 by MTS assay; assay type: functional, cell-based
[4] = target: T2, G-protein coupled estrogen receptor 1 (Homo sapiens, UniProt Q99527); assay: Agonist activity at GPER (unknown origin) expressed in human HL60 cells assessed as increase in cAMP accumulation in presence of IBMX after 15 mins by HTRF assay; assay type: functional, cell-based
T2 sequence (Q99527 whole entry): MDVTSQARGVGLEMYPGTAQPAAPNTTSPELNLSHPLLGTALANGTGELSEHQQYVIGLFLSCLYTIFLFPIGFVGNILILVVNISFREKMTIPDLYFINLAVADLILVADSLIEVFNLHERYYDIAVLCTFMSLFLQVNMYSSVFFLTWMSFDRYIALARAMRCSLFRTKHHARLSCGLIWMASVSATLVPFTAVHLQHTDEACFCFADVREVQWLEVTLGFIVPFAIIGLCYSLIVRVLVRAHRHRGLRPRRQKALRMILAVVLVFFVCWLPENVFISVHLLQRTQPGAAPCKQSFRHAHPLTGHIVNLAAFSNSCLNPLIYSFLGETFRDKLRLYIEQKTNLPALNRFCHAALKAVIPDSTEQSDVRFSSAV

MDA-MB-231 [5] = assay: Cytotoxicity against human MDA-MB-231 cells assessed as decrease in cell viability at 1 uM after 72 hrs in absence of GPER agonist E2 by MTS assay; assay type: functional, cell-based
MCF7 = assay: Cytotoxicity against human MCF7 cells assessed as decrease in cell viability at 1 uM after 72 hrs in presence of GPER agonist E2 by MTS assay; assay type: functional, cell-based
[6] = target: Estrogen receptor beta (Homo sapiens) (UniProt Q92731); assay: Displacement of fluoromone from recombinant human full length untagged estrogen receptor beta expressed in insect cells after 2 hrs by fluorescence polarization assay
Estrogen receptor beta (Homo sapiens), sequence (Q92731 whole entry): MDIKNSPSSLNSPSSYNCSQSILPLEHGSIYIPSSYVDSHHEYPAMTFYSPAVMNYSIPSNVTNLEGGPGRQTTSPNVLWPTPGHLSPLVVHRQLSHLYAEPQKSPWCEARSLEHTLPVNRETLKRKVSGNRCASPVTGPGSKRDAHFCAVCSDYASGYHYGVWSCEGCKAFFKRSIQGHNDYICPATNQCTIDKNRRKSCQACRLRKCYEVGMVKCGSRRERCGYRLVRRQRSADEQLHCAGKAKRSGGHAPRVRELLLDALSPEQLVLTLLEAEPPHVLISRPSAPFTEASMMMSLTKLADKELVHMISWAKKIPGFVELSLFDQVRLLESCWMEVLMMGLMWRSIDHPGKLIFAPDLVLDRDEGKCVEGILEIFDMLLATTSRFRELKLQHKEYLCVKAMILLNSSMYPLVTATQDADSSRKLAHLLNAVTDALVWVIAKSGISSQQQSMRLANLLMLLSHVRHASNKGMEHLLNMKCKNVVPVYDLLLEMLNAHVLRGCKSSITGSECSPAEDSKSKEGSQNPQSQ

[7] = target: Estrogen receptor beta (Homo sapiens) (UniProt Q92731); assay: Displacement of fluoromone from recombinant human full length untagged estrogen receptor beta expressed in insect cells at
HL-60 = assay: Decrease in cAMP accumulation in human HL60 cells harboring GPER siRNA at 100 nM after 48 hrs by HTRF assay; assay type: functional, cell-based
SK-BR-3 [8] = assay: Cytotoxicity against human SKBR3 cells assessed as decrease in cell viability at 1 uM after 72 hrs in absence of GPER agonist E2 by MTS assay; assay type: functional, cell-based
[9] = target: T2, G-protein coupled estrogen receptor 1; assay: Antagonist activity at GPER (unknown origin) expressed in human HL60 cells assessed as inhibition of G-1-induced cAMP accumulation preincubated for 20 mins followed by G-1 addition measured after 10 mins by HTRF assay; assay type: functional, cell-based
[10] = target: Estrogen receptor beta (Homo sapiens) (UniProt Q92731); assay: Displacement of fluoromone from recombinant human full length untagged estrogen receptor beta expressed in insect cells at 1 uM after 2 hrs by fluorescence polarization assay
[11] = target: T1, Estrogen receptor (Homo sapiens); assay: Displacement of fluoromone from recombinant human full length untagged estrogen receptor alpha expressed in insect cells at 1 uM after 2 hrs by fluorescence polarization assay

| SMILES | Activity (MDA-MB-231 [2]) | Activity (SK-BR-3 [3]) | Activity (MDA-MB-231 [5]) | Activity (MCF7) | Activity (SK-BR-3 [8]) | inhibition [9] | further results |
| --- | --- | --- | --- | --- | --- | --- | --- |
| O=C(Nc1ncc(Cc2ccc(F)cc2F)s1)c1[nH]c2ccccc2c1Cl | Active | Active | Active | Active | Active |  | Activity [1]: inactive; pEC50 [4]: 5.79; Activity [6]: inactive; Activity [7]: inactive; Activity (HL-60): inactive |
| N#Cc1ccc(Cc2cnc(NC(=O)c3cc4cc(F)ccc4[nH]3)s2)cc1 |  |  |  |  |  | inactive |  |
| COc1cc(OC)c2[nH]c(C(=O)Nc3ncc(Cc4ccccc4)s3)cc2c1 |  |  |  |  |  | inactive |  |
| O=C(Nc1ncc(Cc2ccc(F)cc2)s1)c1cc2cc(F)ccc2[nH]1 | inactive | inactive | inactive |  | inactive | inactive | Activity [10]: Active; pEC50 [4]: 7.70; Activity [11]: Active |
| O=C(Nc1nc2c(s1)CCC2)c1cc2cc(Br)ccc2[nH]1 |  |  |  |  |  | inactive | Activity [4]: inactive |
| Brc1cc2c(cc1[C@@H]1Nc3ccccc3[C@@H]3C=CC[C@@H]31)OCO2 | inactive |  | inactive | Active |  |  |  |
| CSc1ncc(Cl)c(C(=O)Nc2ncc(Cc3ccc(F)cc3)s2)n1 |  |  |  |  |  | inactive |  |
| CCc1nc(NC(=O)c2[nH]c3ccc(Br)cc3c2Cl)sc1C | inactive | inactive | inactive | Active | inactive |  | Activity [10]: Active; Activity [1]: inactive; pEC50 [4]: 6.32; Activity [11]: Active; Activity [7]: inactive |
| CC(C)c1csc(NC(=O)c2cc3c(Cl)cccc3[nH]2)n1 |  |  |  |  |  | inactive | Activity [4]: inactive |
| O=C(Nc1nc2c(s1)CCC2)c1cc2cc(F)ccc2[nH]1 |  |  |  |  |  | inactive | Activity [4]: inactive |
| CC(=O)c1ccc2c(c1)[C@@H]1C=CC[C@@H]1[C@H](c1cc3c(cc1Br)OCO3)N2 | Active | Active | Active | Active | Active |  | Activity [6]: inactive; Activity (HL-60): inactive |
